The term MIC denotes the smallest concentration in the dilution series that meets the test's criterion for growth inhibition.

≈ marks a conversion by molar mass, not a printed value.

The values that follow come from ChEMBL document CHEMBL1129105, “Synthesis and biological evaluation of N-(1-aziridino)-6-fluoro-quinolone-3-carboxylic acids” (1996).

In one assay the test system is Alcaligenes faecalis. Kind of assay: In vitro antibacterial activity of compound was measured against gram negative Alcaligenes faecalis 140001. The assay is classed as functional.
Another assay deals with Shigella sonnei. Kind of assay: In vitro antibacterial activity of compound was measured against gram negative Shigella sonnei. The format is functional.
The test system of the next assay is Bacteroides fragilis. Kind of assay: In vitro antibacterial activity of compound was measured against gram negative Bacteroides fragilis ATCC 25285. The format is functional.
For assay [1], the system named is Escherichia coli. Kind of assay: In vitro antibacterial activity of compound was measured against gram negative Escherichia coli K12. The format is functional.
The next assay deals with Salmonella typhimurium. Kind of assay: In vitro antibacterial activity of compound was measured against gram negative Salmonella Typhimurium 51. The assay is classed as functional, Salmonella enterica subsp. enterica serovar Typhimurium. The note with it: Salmonella enterica.
The next assay has as its system Enterococcus faecalis. In words: In vitro antibacterial activity of compound was measured against gram positive Streptococcus faecalis. The format is functional.
Assay [2] has as its system Streptococcus pyogenes. Kind of assay: In vitro antibacterial activity of compound was measured against gram positive Streptococcus pyogenes A 115 ROBB. The assay is classed as functional.
The test system of a further assay is Proteus inconstans. In words: In vitro antibacterial activity of compound was measured against gram negative Proteus inconstans NCTC 8055. The format is functional. As to conditions: Providencia alcalifaciens.
Assay [3] relates to Mycobacterium tuberculosis. Kind of assay: In vitro antibacterial activity of compound was measured against gram positive Mycobacterium tuberculosis H37Rv (human). The assay is classed as functional.
In another assay the test system is Klebsiella pneumoniae. Kind of assay: In vitro antibacterial activity of compound was measured against gram negative Klebsiella pneumoniae ATCC 10031. The format is functional.
Assay [4] relates to Mycobacterium tuberculosis. Kind of assay: In vitro antibacterial activity of compound was measured against gram positive Mycobacterium tuberculosis Ravenel(bovin). The assay is classed as functional.
The subject of assay [5] is Escherichia coli. Kind of assay: In vitro antibacterial activity of compound was measured against gram negative Escherichia coli 6R. The assay is classed as functional.
Another assay deals with Bacillus subtilis. Kind of assay: In vitro antibacterial activity of compound was measured against gram positive Bacillus subtilis ATCC 6633. The assay is classed as functional.
The subject of assay [6] is Bordetella bronchiseptica. Kind of assay: In vitro antibacterial activity of compound was measured against gram negative Bordetella bronchiseptica ATCC 4617. The format is functional.
The subject of assay [7] is Streptococcus pyogenes. In words: In vitro antibacterial activity of compound was measured against gram positive Streptococcus pyogenes A 118. The assay is classed as functional.
In a further assay the test system is Serratia marcescens. Kind of assay: In vitro antibacterial activity of compound was measured against gram negative Serratia marcescens. The format is functional.
In assay [8] the test system is Acinetobacter calcoaceticus subsp. anitratus. Kind of assay: In vitro antibacterial activity of compound was measured against gram negative Acinetobacter anitratus 150001. The assay is classed as functional.
The next assay relates to Pseudomonas aeruginosa. Kind of assay: In vitro antibacterial activity of compound was measured against gram negative Pseudomonas pyocyanea NCTC 10490. The format is functional, pseudomona pyocyanea.
A further assay deals with Proteus vulgaris. In words: In vitro antibacterial activity of compound was measured against gram negative Proteus vulgaris XL. The assay is classed as functional.
The test system of assay [9] is Staphylococcus aureus. In words: In vitro antibacterial activity of compound was measured against gram positive Staphylococcus aureus SMITH. The assay is classed as functional.
Assay [10] concerns Staphylococcus aureus. Kind of assay: In vitro antibacterial activity of compound was measured against gram positive Staphylococcus aureus 1110 pen.rez. The assay is classed as functional.
The subject of a further assay is Clostridium perfringens. Kind of assay: In vitro antibacterial activity of compound was measured against gram positive Clostridium perfringens 70500. The assay is classed as functional.
For a further assay, the system named is Streptococcus pneumoniae. Kind of assay: In vitro antibacterial activity of compound was measured against gram positive Streptococcus pneumoniae. The assay is classed as functional.

For the compound `CN1CCN(c2c(F)cc3c(=O)c(C(=O)O)cn(N4CC4c4ccccc4)c3c2F)CC1` (configuration not stated), the MIC against Alcaligenes faecalis was over 100 µg/mL; with Shigella sonnei it was 6.2 µg/mL (≈ 14.1 µM); in the assay with Bacteroides fragilis, over 100 µg/mL; with Escherichia coli [1] it was 25 µg/mL (≈ 56.8 µM); against Salmonella typhimurium, 25 µg/mL (≈ 56.8 µM); against Enterococcus faecalis it was over 100 µg/mL. Also, the MIC with Streptococcus pyogenes [2] is 50 µg/mL (≈ 114 µM); against Proteus inconstans it was 50 µg/mL (≈ 114 µM); in assay [3], 100 µg/mL (≈ 227 µM); with Klebsiella pneumoniae, 12.5 µg/mL (≈ 28.4 µM); in assay [4], 50 µg/mL (≈ 114 µM); against Escherichia coli [5], over 100 µg/mL. The MIC against Bacillus subtilis was 100 µg/mL (≈ 227 µM); in assay [6] it was 100 µg/mL (≈ 227 µM); against Streptococcus pyogenes [7], over 100 µg/mL; against Serratia marcescens it was 50 µg/mL (≈ 114 µM); in assay [8], over 100 µg/mL; against Pseudomonas aeruginosa, over 100 µg/mL. Further, the MIC against Proteus vulgaris came to 25 µg/mL (≈ 56.8 µM); in the assay on Staphylococcus aureus [9], 100 µg/mL (≈ 227 µM); against Staphylococcus aureus [10], 100 µg/mL (≈ 227 µM); against Clostridium perfringens, 100 µg/mL (≈ 227 µM); in the assay on Streptococcus pneumoniae, 25 µg/mL (≈ 56.8 µM).
With `CN1CCN(c2c(F)cc3c(=O)c(C(=O)O)cn(N4CC4c4ccc(F)cc4)c3c2F)CC1` (configuration not stated), the MIC with Alcaligenes faecalis is over 100 µg/mL; against Shigella sonnei, 12.5 µg/mL (≈ 27.3 µM); in the assay with Bacteroides fragilis, over 100 µg/mL; against Escherichia coli [1] it was 12.5 µg/mL (≈ 27.3 µM); against Salmonella typhimurium, 25 µg/mL (≈ 54.5 µM); in the assay on Enterococcus faecalis, over 100 µg/mL. Further, the MIC against Streptococcus pyogenes [2] was 100 µg/mL (≈ 218 µM); in the assay with Proteus inconstans, 25 µg/mL (≈ 54.5 µM); in assay [3], 100 µg/mL (≈ 218 µM); against Klebsiella pneumoniae, 12.5 µg/mL (≈ 27.3 µM); in assay [4], 50 µg/mL (≈ 109 µM); against Escherichia coli [5], over 100 µg/mL. For the same compound, the MIC against Bacillus subtilis was over 100 µg/mL; in [6] it was over 100 µg/mL; in the assay with Streptococcus pyogenes [7], over 100 µg/mL; against Serratia marcescens, 25 µg/mL (≈ 54.5 µM); in [8] it was over 100 µg/mL; against Pseudomonas aeruginosa it was over 100 µg/mL. Besides, the MIC was 25 µg/mL (≈ 54.5 µM) against Proteus vulgaris; over 100 µg/mL in the assay with Staphylococcus aureus [9]; over 100 µg/mL against Staphylococcus aureus [10]; 100 µg/mL (≈ 218 µM) against Clostridium perfringens; 50 µg/mL (≈ 109 µM) in the assay on Streptococcus pneumoniae.
On to `CN1CCN(c2cc3c(cc2F)c(=O)c(C(=O)O)cn3N2CC2c2ccccn2)CC1` (configuration not stated), for which the MIC in the assay with Alcaligenes faecalis is over 100 µg/mL; against Shigella sonnei, 12.5 µg/mL (≈ 29.5 µM); against Bacteroides fragilis it was 50 µg/mL (≈ 118 µM); against Escherichia coli [1] it was 100 µg/mL (≈ 236 µM); in the assay on Salmonella typhimurium, 100 µg/mL (≈ 236 µM); in the assay on Enterococcus faecalis, 100 µg/mL (≈ 236 µM). In addition, the MIC in the assay with Streptococcus pyogenes [2] is 50 µg/mL (≈ 118 µM); in the assay on Proteus inconstans it was over 100 µg/mL; in [3], 50 µg/mL (≈ 118 µM); against Klebsiella pneumoniae, 50 µg/mL (≈ 118 µM); in assay [4] it was 25 µg/mL (≈ 59 µM); in the assay with Escherichia coli [5], 100 µg/mL (≈ 236 µM). For the same compound, the MIC against Bacillus subtilis was 50 µg/mL (≈ 118 µM); in assay [6], 100 µg/mL (≈ 236 µM); in the assay with Streptococcus pyogenes [7], 50 µg/mL (≈ 118 µM); in the assay on Serratia marcescens, 100 µg/mL (≈ 236 µM); in [8] it was over 100 µg/mL; against Pseudomonas aeruginosa, 100 µg/mL (≈ 236 µM). In addition, the minimal inhibitory concentration (MIC) was over 100 µg/mL against Proteus vulgaris; 50 µg/mL (≈ 118 µM) against Staphylococcus aureus [9]; 100 µg/mL (≈ 236 µM) against Staphylococcus aureus [10]; 50 µg/mL (≈ 118 µM) against Clostridium perfringens; 25 µg/mL (≈ 59 µM) in the assay with Streptococcus pneumoniae.
As to `CN1CCN(c2cc3c(cc2F)c(=O)c(C(=O)O)cn3N2CC2c2ccc(F)cc2)CC1` (configuration not stated), the MIC against Alcaligenes faecalis is 100 µg/mL (≈ 227 µM); in the assay on Shigella sonnei, 25 µg/mL (≈ 56.8 µM); in the assay on Bacteroides fragilis it was 25 µg/mL (≈ 56.8 µM); in the assay with Escherichia coli [1] it was 50 µg/mL (≈ 114 µM); in the assay on Salmonella typhimurium, 50 µg/mL (≈ 114 µM); in the assay on Enterococcus faecalis it was 25 µg/mL (≈ 56.8 µM). Further, the minimal inhibitory concentration (MIC) with Streptococcus pyogenes [2] was found to be 10 µg/mL (≈ 22.7 µM); in the assay with Proteus inconstans it was 100 µg/mL (≈ 227 µM); in assay [3] it was 12.5 µg/mL (≈ 28.4 µM); against Klebsiella pneumoniae it was 6.2 µg/mL (≈ 14.1 µM); in assay [4] it was 6.2 µg/mL (≈ 14.1 µM); in the assay on Escherichia coli [5], 100 µg/mL (≈ 227 µM). Moreover, the MIC in the assay on Bacillus subtilis is 10 µg/mL (≈ 22.7 µM); in assay [6] it was 12.5 µg/mL (≈ 28.4 µM); in the assay on Streptococcus pyogenes [7], 25 µg/mL (≈ 56.8 µM); against Serratia marcescens, 100 µg/mL (≈ 227 µM); in assay [8] it was 50 µg/mL (≈ 114 µM); with Pseudomonas aeruginosa, 100 µg/mL (≈ 227 µM). Besides, the MIC was found to be 100 µg/mL (≈ 227 µM) in the assay on Proteus vulgaris; 25 µg/mL (≈ 56.8 µM) in the assay with Staphylococcus aureus [9]; 25 µg/mL (≈ 56.8 µM) in the assay with Staphylococcus aureus [10]; 6.2 µg/mL (≈ 14.1 µM) against Clostridium perfringens; 5 µg/mL (≈ 11.4 µM) with Streptococcus pneumoniae.
